PubChem BioAssay AID248 (DTP/NCI, 2004)
“And” between values parts separate entries of the source, which are not always exact repeats. Identical values can stand only once. Inconclusive results and toxic doses are left out. No stated cut-off is given here; in the data, active means T/C of 150% or more; inactive means T/C below 125%.

Tested on: L1210 leukemia ip in BDF1 mice, survival T/C
Test: NCI In Vivo Anticancer Drug Screen. Data for tumor model L1210 Leukemia (intraperitoneal) in B6D2F1 (BDF1) mice
Settings: endpoint: mean survival time, higher = longer survival
In short: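 Tumor cells were implanted, animals were treated, and survival was followed. The result divides the treated measurement by the vehicle-control measurement.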

[1] = dose: 100.0 mg/kg/injection, schedule: Q01DX009 (ip), vehicle: saline with Tween-80
[2] = dose: 200.0 mg/kg/injection, schedule: Q01DX009 (ip), vehicle: saline with Tween-80
[3] = dose: 400.0 mg/kg/injection, schedule: Q01DX009 (ip), vehicle: saline with Tween-80
[4] = dose: 100.0 mg/kg/injection, schedule: Q04DX003 (ip), vehicle: Klucel (hydroxypropylcellulose) (HPC)
[5] = dose: 200.0 mg/kg/injection, schedule: Q04DX003 (ip), vehicle: Klucel (hydroxypropylcellulose) (HPC)
[6] = dose: 400.0 mg/kg/injection, schedule: Q04DX003 (ip), vehicle: Klucel (hydroxypropylcellulose) (HPC)
[7] = dose: 100.0 mg/kg/injection, schedule: Q01DX009 (ip), vehicle: Klucel (hydroxypropylcellulose) (HPC)

Measured: T/C

C=COCCOC
inactive: [1] 104 % of control | [2] 101 % of control | [3] 107 % of control

CC(C)CC(C)N (configuration not stated)
inactive: dose: 50.0 mg/kg/injection, schedule: Q04DX003 (ip), vehicle: Klucel (hydroxypropylcellulose) (HPC) 93 % of control | [4] 100 % of control | [5] 96 % of control

c1ccc(-c2nn(-c3ccccc3)[n+](-c3cccc4ccccc34)n2)cc1
inactive: dose: 1.0 mg/kg/injection, schedule: Q01DX015 (ip), vehicle: carboxymethylcellulose (CMC) 100 % of control | dose: 2.0 mg/kg/injection, schedule: Q01DX015 (ip), vehicle: carboxymethylcellulose (CMC) 102 % of control | dose: 4.0 mg/kg/injection, schedule: Q01DX015 (ip), vehicle: carboxymethylcellulose (CMC) 102 % of control | dose: 8.0 mg/kg/injection, schedule: Q01DX015 (ip), vehicle: carboxymethylcellulose (CMC) 105 % of control

O=S(Cc1ccc(Cl)cc1)c1ccc(Cl)cc1 (configuration not stated)
inactive: [4] 97 % of control | [5] 90 % of control | [6] 104 % of control

CCOc1c(OC)cc(/C=C/C(=O)NC2CC2)cc1OC
inactive: dose: 25.0 mg/kg/injection, schedule: Q01DX009 (ip), vehicle: Klucel (hydroxypropylcellulose) (HPC) 88 % of control | [7] 101 % of control and 88 % of control

CCCC(O)C(C)[N+](=O)[O-] (configuration not stated)
inactive: dose: 100.0 mg/kg/injection, schedule: Q04DX003 (ip), vehicle: saline 96 % of control | dose: 200.0 mg/kg/injection, schedule: Q04DX003 (ip), vehicle: saline 102 % of control | dose: 400.0 mg/kg/injection, schedule: Q04DX003 (ip), vehicle: saline 96 % of control

CCOP(=O)(NCCCOC)OCC
inactive: dose: 0.78 mg/kg/injection, schedule: Q01DX009 (ip), vehicle: acetone 96 % of control | dose: 1.56 mg/kg/injection, schedule: Q01DX009 (ip), vehicle: acetone 100 % of control | dose: 3.12 mg/kg/injection, schedule: Q01DX009 (ip), vehicle: acetone 91 % of control | dose: 3.12 mg/kg/injection, schedule: Q04DX003 (ip), vehicle: saline 93 % of control | dose: 4.6 mg/kg/injection, schedule: Q01DX009 (ip), vehicle: saline 95 % of control | dose: 7.0 mg/kg/injection, schedule: Q01DX009 (ip), vehicle: saline 98 % of control | dose: 10.5 mg/kg/injection, schedule: Q01DX009 (ip), vehicle: saline 95 % of control | dose: 12.5 mg/kg/injection, schedule: Q01DX001 (ip), vehicle: acetone 94 % of control | dose: 15.0 mg/kg/injection, schedule: Q01DX009 (ip), vehicle: acetone 94 % of control | dose: 23.0 mg/kg/injection, schedule: Q01DX009 (ip), vehicle: acetone 94 % of control

CC(=O)OCCN1CCN(CC/C=C2\c3ccccc3Sc3ccc(Cl)cc32)CC1
inactive: dose: 2.0 mg/kg/injection, schedule: Q01DX009 (ip), vehicle: saline 100 % of control | dose: 5.0 mg/kg/injection, schedule: Q01DX009 (ip), vehicle: saline 98 % of control and 115 % of control | dose: 10.0 mg/kg/injection, schedule: Q01DX009 (ip), vehicle: saline 102 % of control | dose: 20.0 mg/kg/injection, schedule: Q01DX009 (ip), vehicle: saline 111 % of control | dose: 25.0 mg/kg/injection, schedule: Q04DX003 (ip), vehicle: saline 120 % of control | dose: 40.0 mg/kg/injection, schedule: Q01DX009 (ip), vehicle: saline 117 % of control | dose: 100.0 mg/kg/injection, schedule: Q01DX001 (ip), vehicle: saline 108 % of control | dose: 200.0 mg/kg/injection, schedule: Q01DX001 (ip), vehicle: saline 114 % of control

N#CCCN(C(=O)Nc1cccc(C(F)(F)F)c1)C1CCCCC1
inactive: dose: 100.0 mg/kg/injection, schedule: Q01DX001 (ip), vehicle: carboxymethylcellulose (CMC) 100 % of control and 103 % of control | dose: 100.0 mg/kg/injection, schedule: Q01DX009 (ip), vehicle: carboxymethylcellulose (CMC) 90 % of control | dose: 100.0 mg/kg/injection, schedule: Q04DX002 (ip), vehicle: carboxymethylcellulose (CMC) 93 % of control and 89 % of control | dose: 100.0 mg/kg/injection, schedule: Q04DX003 (ip), vehicle: carboxymethylcellulose (CMC) 100 % of control and 103 % of control | dose: 200.0 mg/kg/injection, schedule: Q01DX001 (ip), vehicle: carboxymethylcellulose (CMC) 96 % of control and 100 % of control | dose: 200.0 mg/kg/injection, schedule: Q01DX009 (ip), vehicle: carboxymethylcellulose (CMC) 90 % of control | dose: 200.0 mg/kg/injection, schedule: Q04DX002 (ip), vehicle: carboxymethylcellulose (CMC) 93 % of control | dose: 200.0 mg/kg/injection, schedule: Q04DX003 (ip), vehicle: carboxymethylcellulose (CMC) 93 % of control | dose: 400.0 mg/kg/injection, schedule: Q01DX001 (ip), vehicle: carboxymethylcellulose (CMC) 92 % of control and 102 % of control | dose: 400.0 mg/kg/injection, schedule: Q04DX002 (ip), vehicle: carboxymethylcellulose (CMC) 86 % of control | dose: 400.0 mg/kg/injection, schedule: Q04DX003 (ip), vehicle: carboxymethylcellulose (CMC) 95 % of control

O=Cc1ccc[n+](Cc2ccccc2)c1
inactive: dose: 75.0 mg/kg/injection, schedule: Q01DX001 (ip), vehicle: saline 98 % of control | dose: 150.0 mg/kg/injection, schedule: Q01DX001 (ip), vehicle: saline 102 % of control | dose: 300.0 mg/kg/injection, schedule: Q01DX001 (ip), vehicle: saline 102 % of control

C1=Cc2ccccc2C(c2ccccn2)c2ccccc21
inactive: dose: 100.0 mg/kg/injection, schedule: Q04DX003 (ip), vehicle: gum acacia 90 % of control | dose: 200.0 mg/kg/injection, schedule: Q04DX003 (ip), vehicle: gum acacia 97 % of control | dose: 400.0 mg/kg/injection, schedule: Q04DX003 (ip), vehicle: gum acacia 93 % of control

O=[N+]([O-])c1cccc(/C=C/CCOc2ccccc2)c1
inactive: dose: 100.0 mg/kg/injection, schedule: Q01DX009 (sc), vehicle: olive oil, sesame oil, peanut oil 97 % of control | dose: 100.0 mg/kg/injection, schedule: Q04DX003 (sc), vehicle: olive oil, sesame oil, peanut oil 101 % of control | dose: 200.0 mg/kg/injection, schedule: Q01DX009 (sc), vehicle: olive oil, sesame oil, peanut oil 114 % of control | dose: 200.0 mg/kg/injection, schedule: Q04DX003 (sc), vehicle: olive oil, sesame oil, peanut oil 100 % of control | dose: 400.0 mg/kg/injection, schedule: Q01DX009 (sc), vehicle: olive oil, sesame oil, peanut oil 109 % of control | dose: 400.0 mg/kg/injection, schedule: Q04DX003 (sc), vehicle: olive oil, sesame oil, peanut oil 103 % of control

O=[N+]([O-])C1C=NCCN=C1
inactive: dose: 100.0 mg/kg/injection, schedule: Q04DX013 (ip), vehicle: carboxymethylcellulose (CMC) 96 % of control | dose: 200.0 mg/kg/injection, schedule: Q04DX013 (ip), vehicle: carboxymethylcellulose (CMC) 94 % of control | dose: 400.0 mg/kg/injection, schedule: Q04DX013 (ip), vehicle: carboxymethylcellulose (CMC) 94 % of control

CC1(C(=O)N2c3ccccc3C=CC2C#N)CC2C=CC1C2 (configuration not stated)
inactive: [4] 106 % of control | [5] 110 % of control | [6] 123 % of control

O=C1CC(Nc2ccccc2)C(=O)N1c1cccc2ccccc12 (configuration not stated)
inactive: [7] 102 % of control | dose: 200.0 mg/kg/injection, schedule: Q01DX009 (ip), vehicle: Klucel (hydroxypropylcellulose) (HPC) 96 % of control | dose: 400.0 mg/kg/injection, schedule: Q01DX009 (ip), vehicle: Klucel (hydroxypropylcellulose) (HPC) 91 % of control

COc1ccc(OC)c(NC(=S)NC(=O)c2ccc(Cl)cc2Cl)c1
inactive: dose: 100.0 mg/kg/injection, schedule: Q01DX001 (ip), vehicle: saline with Tween-80 89 % of control | [1] 100 % of control and 102 % of control | dose: 100.0 mg/kg/injection, schedule: Q04DX002 (ip), vehicle: saline with Tween-80 93 % of control and 100 % of control | dose: 100.0 mg/kg/injection, schedule: Q04DX003 (ip), vehicle: saline with Tween-80 105 % of control | dose: 200.0 mg/kg/injection, schedule: Q01DX001 (ip), vehicle: saline with Tween-80 86 % of control | [2] 96 % of control and 99 % of control | dose: 200.0 mg/kg/injection, schedule: Q04DX002 (ip), vehicle: saline with Tween-80 106 % of control and 107 % of control | dose: 200.0 mg/kg/injection, schedule: Q04DX003 (ip), vehicle: saline with Tween-80 92 % of control | dose: 400.0 mg/kg/injection, schedule: Q01DX001 (ip), vehicle: saline with Tween-80 96 % of control | [3] 89 % of control | dose: 400.0 mg/kg/injection, schedule: Q04DX002 (ip), vehicle: saline with Tween-80 93 % of control | dose: 400.0 mg/kg/injection, schedule: Q04DX003 (ip), vehicle: saline with Tween-80 95 % of control

OCCN1CCN(C(=S)[S-])CC1.OCCN1CCN(C(=S)[S-])CC1.[Zn]
inactive: dose: 10.0 mg/kg/injection, schedule: Q04DX003 (ip), vehicle: saline 93 % of control | dose: 20.0 mg/kg/injection, schedule: Q04DX003 (ip), vehicle: saline 90 % of control
